Patent publication US7772183B2 (Bristol-Myers Squibb Company, priority 2005, dated 2010)

Columns and labels:
[1] = biological target: T1, HCV NS3/4A protease complex, BMS strain (UniProt P27958, species not given/STRAIN_BMS); assay: FRET peptide assay to monitor HCV NS3/4A proteolytic activity (BMS strain); assay type: biochemical, Hepatitis C virus (genotype 1a); details: NS3/4A BMS strain; read-out: IC50 Range
T1 construct: said of H77 and J4L6S; fused on or other part: A three-lysine solubilising tail at the C-terminus of NS4A and a His tag (pET21b, Ni-NTA purification)
T1 sequence (P27958 1027-1657, change not shown, one chain of several): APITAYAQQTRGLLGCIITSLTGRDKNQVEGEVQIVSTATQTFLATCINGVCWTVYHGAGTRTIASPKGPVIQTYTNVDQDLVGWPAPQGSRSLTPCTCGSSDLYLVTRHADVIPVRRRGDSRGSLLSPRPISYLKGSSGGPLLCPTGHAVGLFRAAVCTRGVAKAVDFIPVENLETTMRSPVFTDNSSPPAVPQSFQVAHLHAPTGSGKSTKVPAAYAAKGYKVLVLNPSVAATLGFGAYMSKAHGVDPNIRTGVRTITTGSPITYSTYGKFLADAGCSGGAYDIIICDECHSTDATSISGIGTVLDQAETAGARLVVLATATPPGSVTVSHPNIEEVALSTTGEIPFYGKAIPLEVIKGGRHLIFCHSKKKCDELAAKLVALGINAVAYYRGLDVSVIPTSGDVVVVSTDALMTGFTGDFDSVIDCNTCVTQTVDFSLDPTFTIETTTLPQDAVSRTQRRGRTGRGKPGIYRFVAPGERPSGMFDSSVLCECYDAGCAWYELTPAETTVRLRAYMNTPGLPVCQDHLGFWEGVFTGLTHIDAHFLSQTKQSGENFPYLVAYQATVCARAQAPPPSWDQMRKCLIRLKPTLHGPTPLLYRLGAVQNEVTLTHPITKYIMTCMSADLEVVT
Source text: HCV NS3 protease complexes, derived from the BMS strain, H77 strain or J4L6S strain, were generated, as described below. These purified recombinant proteins were generated for use in a homogeneous assay (see below) to provide an indication of how effective compounds of the present disclosure would be in inhibiting HCV NS3 proteolytic activity.
Serum from an HCV-infected patient was obtained from Dr. T. Wright, San Francisco Hospital. An engineered full-length cDNA (compliment deoxyribonucleic acid) template of the HCV genome (BMS strain) was constructed from DNA fragments obtained by reverse transcription-PCR (RT-PCR) of serum RNA (ribonucleic acid) and using primers selected on the basis of homology between other genotype 1a strains. From the determination of the entire genome sequence, a genotype 1a was assigned to the HCV isolate according to the classification of Simmonds et al. (See P Simmonds, K A Rose, S Graham, S W Chan, F McOmish, B C Dow, E A Follett, P L Yap and H Marsden, J. Clin. Microbiol., 31(6), 1493-1503 (1993)). […] The infectious clones, H77 (1a genotype) and J4L6S (1b genotype) were obtained from R. Purcell (NIH) and the sequences are published in Genbank (AAB67036, see Yanagi, M., Purcell, R. H., Emerson, S. U. and Bukh, J. Proc. Natl. Acad. Sci. U.S.A. 94(16), 8738-8743 (1997); AF054247, see Yanagi, M., St Claire, M., Shapiro, M., Emerson, S. U., Purcell, R. H. and Bukh, J, Virology 244 (1), 161-172. (1998)).
The H77 and J4L6S strains were used for production of recombinant NS3/4A protease complexes. DNA encoding the recombinant HCV NS3/4A protease complex (amino acids 1027 to 1711) for these strains were manipulated as described by P. Gallinari et al. (see Gallinari P, Paolini C, Brennan D, Nardi C, Steinkuhler C, De Francesco R. Biochemistry. 38(17):5620-32, (1999)). Briefly, a three-lysine solubilizing tail was added at the 3′-end of the NS4A coding region. The cysteine in the P1 position of the NS4A-NS4B cleavage site (amino acid 1711) was changed to a glycine to avoid the proteolytic cleavage of the lysine tag. Furthermore, a cysteine to serine mutation was introduced by PCR at amino acid position 1454 to prevent the autolytic cleavage in the NS3 helicase domain. The variant DNA fragment was cloned in the pET21b bacterial expression vector (Novagen) and the NS3/4A complex was expressed in Escherichia coli strain BL21 (DE3) (Invitrogen) following the protocol described by P. Gallinari et al. (see Gallinari P, Brennan D, Nardi C, Brunetti M, Tomei L, Steinkuhler C, De Francesco R., J Virol. 72(8):6758-69 (1998)) with modifications. Briefly, the NS3/4A protease complex expression was induced with 0.5 mM Isopropyl β-D-1-thiogalactopyranoside (IPTG) for 22 hours (h) at 20° C. A typical fermentation (1 Liter (L)) yielded approximately 10 grams (g) of wet cell paste. The cells were resuspended in lysis buffer (10 mL/g) consisting of 25 mM N-(2-Hydroxyethyl)Piperazine-N′-(2-Ethane Sulfonic acid) (HEPES), pH 7.5, 20% glycerol, 500 mM Sodium Chloride (NaCl), 0.5% Triton X-100, 1 microgram/milliliter (“μg/mL”) lysozyme, 5 mM Magnesium Chloride (MgCl2), 1 μg/ml Dnasel, 5 mM β-Mercaptoethanol (βME), Protease inhibitor-Ethylenediamine Tetraacetic acid (EDTA) free (Roche), homogenized and incubated for 20 minutes (min) at 4° C. The homogenate was sonicated and clarified by ultra-centrifugation at 235000 g for 1 h at 4° C. Imidazole was added to the supernatant to a final concentration of 15 mM and the pH adjusted to 8.0. The crude protein extract was loaded on a Nickel-Nitrilotriacetic acid (Ni-NTA) column pre-equilibrated with buffer B (25 mM HEPES, pH 8.0, 20% glycerol, 500 mM NaCl, 0.5% Triton X-100, 15 mM imidazole, 5 mM βME). The sample was loaded at a flow rate of 1 mL/min. The column was washed with 15 column volumes of buffer C (same as buffer B except with 0.2% Triton X-100). The protein was eluted with 5 column volumes of buffer D (same as buffer C except with 200 mM Imidazole). […]

[2] = system: HCV replicon in HUH-7 cells; assay: HCV replicon FRET assay; assay type: cell-based, Hepatitis C virus (strain 1b); details: Hepatitis C virus, Huh-7; HCV replicon, for compounds tested; read-out: EC50 Range
Source text: An HCV replicon whole cell system was established as described by Lohmann V, Komer F, Koch J, Herian U, Theilmann L, Bartenschlager R., Science 285(5424):110-3 (1999). This system enabled us to evaluate the effects of our HCV Protease compounds on HCV RNA replication. Briefly, using the HCV strain 1b sequence described in the Lohmann paper (Assession number: AJ238799), an HCV cDNA was synthesized by Operon Technologies, Inc. (Alameda, Calif.), and the full-length replicon was then assembled in plasmid pGem9zf(+) (Promega, Madison, Wis.) using standard molecular biology techniques. The replicon consists of (i) the HCV 5′ UTR fused to the first 12 amino acids of the capsid protein, (ii) the neomycin phosphotransferase gene (neo), (iii) the IRES from encephalomyocarditis virus (EMCV), and (iv) HCV NS3 to NS5B genes and the HCV 3′ UTR. Plasmid DNAs were linearized with Scal and RNA transcripts were synthesized in vitro using the T7 MegaScript transcription kit (Ambion, Austin, Tex.) according to manufacturer's directions. In vitro transcripts of the cDNA were transfected into the human hepatoma cell line, HUH-7. […] Resulting cell lines were characterized for positive and negative strand RNA production and protein production over time.
The HCV replicon FRET assay was developed to monitor the inhibitory effects of compounds described in the disclosure on HCV viral replication. HUH-7 cells, constitutively expressing the HCV replicon, were grown in Dulbecco's Modified Eagle Media (DMEM) (Gibco-BRL) containing 10% Fetal calf serum (FCS) (Sigma) and 1 mg/ml G418 (Gibco-BRL). Cells were seeded the night before (1.5×10^4 cells/well) in 96-well tissue-culture sterile plates. Compound and no compound controls were prepared in DMEM containing 4% FCS, 1:100 Penicillin/Streptomysin (Gibco-BRL), 1:100 L-glutamine and 5% DMSO in the dilution plate (0.5% DMSO final concentration in the assay). Compound/DMSO mixes were added to the cells and incubated for 4 days at 37° C. After 4 days, cells were first assessed for cytotoxicity using alamar Blue (Trek Diagnotstic Systems) for a CC50 reading. The toxicity of compound (CC50) was determined by adding 1/10th volume of alamar Blue to the media incubating the cells. After 4 hours, the fluorescence signal from each well was read, with an excitation wavelength at 530 nm and an emission wavelength of 580 nm, using the Cytofluor Series 4000 (Perspective Biosystems). Plates were then rinsed thoroughly with Phosphate-Buffered Saline (PBS) (3 times 150 μl). The cells were lysed with 25 μl of a lysis assay reagent containing an HCV protease substrate (5× cell Luciferase cell culture lysis reagent (Promega #E153A) diluted to 1× with distilled water, NaCl added to 150 mM final, the FRET peptide substrate (as described for the enzyme assay above) diluted to 10 μM final from a 2 mM stock in 100% DMSO. […]. The plate was then placed into the Cytofluor 4000 instrument which had been set to 340 nm excitation/490 nm emission, automatic mode for 21 cycles and the plate read in a kinetic mode. EC50 determinations were carried out as described for the IC50 determinations.

For `CC(C)(C)OC(=O)N[C@H]1CCCCC/C=C\[C@@H]2C[C@@]2(C(=O)NS(=O)(=O)C2CC2)NC(=O)[C@@H]2C[C@@H](OC(=O)c3cc4ccccc4o3)CN2C1=O`, the IC50 [1] was under 100 nM and the EC50 [2] was under 100 nM.

Work on `CN(C)S(=O)(=O)NC(=O)[C@@]12C[C@H]1/C=C\CCCCC[C@H](NC(=O)OC(C)(C)C)C(=O)N1C[C@H](OC(=O)c3ccc4c(c3)OCCO4)C[C@H]1C(=O)N2` yielded an IC50 [1] of under 100 nM and an EC50 [2] of under 100 nM.

With `CC(C)(C)OC(=O)N[C@H]1CCCCC/C=C\[C@@H]2C[C@@]2(C(=O)NS(=O)(=O)C2CC2)NC(=O)[C@@H]2C[C@@H](OC(=O)c3cccc(F)c3)CN2C1=O` the IC50 [1] was under 100 nM and the EC50 [2] was under 100 nM.

`Cc1onc(-c2ccccc2)c1C(=O)O[C@@H]1C[C@H]2C(=O)N[C@]3(C(=O)NS(=O)(=O)C4CC4)C[C@H]3/C=C\CCCCC[C@H](NC(=O)OC(C)(C)C)C(=O)N2C1` showed an IC50 [1] of under 100 nM and an EC50 [2] of under 100 nM.

In the case of `CCC(C(=O)O[C@@H]1C[C@H]2C(=O)N[C@]3(C(=O)NS(=O)(=O)C4CC4)C[C@H]3/C=C\COCCC[C@H](NC(=O)OC(C)(C)C)C(=O)N2C1)c1ccccc1` (mixture of isomers) [Compound 5, 18-(2-phenylbutyryloxy)-14-tert-butoxycarbonylamino-4-cyclopropylsulfonylaminocarbonyl-2,15-dioxo-3,16-diaza-10-oxatricyclo-[14.3.0.0^4,6]-nonadec-7-ene], the IC50 [1] is reported as under 100 nM, the EC50 [2] is reported as over 1000 nM and the melting point is reported as 113 to 115 °C.

With `CC(C)(C)OC(=O)N[C@H]1CCCOC/C=C\[C@@H]2C[C@@]2(C(=O)NS(=O)(=O)C2CC2)NC(=O)[C@@H]2C[C@@H](OC(=O)c3ccccc3)CN2C1=O` [Compound 1, 18-benzoyloxy-14-tert-butoxycarbonylamino-4-cyclopropylsulfonylaminocarbonyl-2,15-dioxo-3,16-diaza-10-oxatricyclo[14.3.0.0^4,6]nonadec-7-ene] the IC50 [1] was under 100 nM, the EC50 [2] was 100 to 1000 nM and the melting point was 153 to 155 °C.

Compound `CCCC(C)C(=O)O[C@@H]1C[C@H]2C(=O)N[C@]3(C(=O)NS(=O)(=O)C4CC4)C[C@H]3/C=C\COCCC[C@H](NC(=O)OC(C)(C)C)C(=O)N2C1` (stereo partly shown) [Compound 2, 18-(2-methylvaleryloxy)-14-tert-butoxycarbonylamino-4-cyclopropylsulfonylaminocarbonyl-2,15-dioxo-3,16-diaza-10-oxatricyclo-[14.3.0.0^4,6]-nonadec-7-ene] has an IC50 [1] of under 100 nM, an EC50 [2] of over 1000 nM and a melting point of 121 to 123 °C.

In the case of `CC(C)(C)OC(=O)N[C@H]1COCCC/C=C\[C@@H]2C[C@@]2(C(=O)NS(=O)(=O)C2CC2)NC(=O)[C@@H]2C[C@@H](OC(=O)Nc3ccc(-c4ccccc4)cc3)CN2C1=O` [Compound 39, 18-(4-biphenylaminocarbonyloxy)-14-tert-butoxycarbonylamino-4-cyclopropylsulfonylaminocarbonyl-2,15-dioxo-3,16-diaza-12-oxatricyclo-[14.3.0.0^4,6]-nonadec-7-ene], the IC50 [1] is reported as over 1000 nM and the melting point is reported as 170 to 173 °C.

Work on `CC(C)(C)OC(=O)N[C@H]1COCCC/C=C\[C@@H]2C[C@@]2(C(=O)NS(=O)(=O)C2CC2)NC(=O)[C@@H]2C[C@@H](OC(=O)N3Cc4cccc(F)c4C3)CN2C1=O` [Compound 46, 18-(2-[4-fluoroisoindoline]carbonyloxy)-14-tert-butoxycarbonylamino-4-cyclopropylsulfonylaminocarbonyl-2,15-dioxo-3,16-diaza-12-oxatricyclo-[14.3.0.0^4,6]-nonadec-7-ene] yielded an IC50 [1] of under 100 nM and an EC50 [2] of under 100 nM.

With `CC(C)(C)OC(=O)N[C@H]1CCCCC/C=C\[C@@H]2C[C@@]2(C(=O)O)NC(=O)[C@@H]2C[C@@H](OC(=O)Nc3ccccc3-c3ccccc3)CN2C1=O` [Compound 47] the IC50 [1] was over 1000 nM.

`CC(C)(C)OC(=O)N[C@H]1CCCCC/C=C\[C@@H]2C[C@@]2(C(=O)NS(=O)(=O)C2CC2)NC(=O)[C@@H]2C[C@@H](OC(=O)Nc3ccccc3-c3ccccc3)CN2C1=O` [Compound 48] gave an IC50 [1] of under 100 nM and an EC50 [2] of under 100 nM.

With `CC(C)(C)OC(=O)N[C@H]1CN(C2CC2)CCC/C=C\[C@@H]2C[C@@]2(C(=O)NS(=O)(=O)C2CC2)NC(=O)[C@@H]2C[C@@H](OC(=O)c3ccc4nccnc4c3)CN2C1=O` [Compound 49] the IC50 [1] was under 100 nM and the EC50 [2] was under 100 nM.

Work on `CC(C)(C)OC(=O)N[C@H]1CN(C2CC2)CCC/C=C\[C@@H]2C[C@@]2(C(=O)NS(=O)(=O)C2CC2)NC(=O)[C@@H]2C[C@@H](OC(=O)N3Cc4cccc(F)c4C3)CN2C1=O` [Compound 50] yielded an IC50 [1] of under 100 nM and an EC50 [2] of under 100 nM.
